Values after ≈ are worked out from the molar mass of the structure shown. Like-named read-outs stand apart in the source and are kept apart here.
Columns and labels:
[1] = tested on: Klebsiella pneumoniae (ATCC 11296); assay: Antimicrobial activity (growth, OD 600 nm); type: cell-based
[2] = tested on: Bacillus subtilis (ATCC 6633); assay: Antimicrobial activity (growth, OD 600 nm); type: cell-based
[3] = tested on: Staphylococcus aureus (ATCC 25923); assay: Antimicrobial activity (growth, OD 600 nm); type: cell-based
3T3 mouse fibroblasts = assay: Cytotoxicity on 3T3 cells (MTT); type: cell-based
[4] = Critical micelle concentration via ionic conductivity; type: physicochemical; settings: for CMC: in water at 25 °C
[5] = cited from earlier work
[6] = in water at 25 °C, cited from earlier work
[7] = 0.001–10 µM, read-out: IC50 K. pneumoniae
[8] = relative decrease of inhibitory concentration vs ciprofloxacin
[9] = 0.001–10 µM, read-out: IC50 B. subtilis
[10] = Klebsiella pneumoniae, ATCC11296, 0.001–10 µM, read-out: IC50 K. pneumoniae
[11] = Staphylococcus aureus, ATCC25923, 0.001–10 µM, read-out: IC50 S. aureus
[12] = Bacillus subtilis, ATCC6633, 0.001–10 µM, read-out: IC50 B. subtilis
[13] = relative decrease of inhibitory concentration vs norfloxacin
[14] = 0.001–10 µM, read-out: IC50 S. aureus

Row | Compound | IC50 [1, 7] [nM] | IC50 [2, 9] [nM] | RDIC50 B. subtilis [2, 8] | IC50 [1, 10] [nM] | IC50 [3, 11] [nM] | IC50 [2, 12] [nM] | RDIC50 K. pneumoniae [1, 13] | IC50 [3, 14] [nM] | RDIC50 S. aureus [3, 13] | RDIC50 B. subtilis [2, 13] | also measured
1 | C[n+]1ccn(CCO)c1.O=C([O-])c1cn(C2CC2)c2cc(N3CCNCC3)c(F)cc2c1=O [[C2OHMIM][Cip]] | 36.4 | 15.8 | 0.2 |  |  |  |  |  |  |  | RDIC50 K. pneumoniae [1, 8]: 5.4
2 | C[n+]1ccn(CCO)c1 [[C2OHmim]Cl, reference compound] |  |  |  | > 10000 | > 10000 | > 10000 |  |  |  |  | 
3 | CCn1cc(C(=O)[O-])c(=O)c2cc(F)c(N3CCNCC3)cc21.C[N+](C)(C)CCO [[Ch][Nor]] | 199 | 95.5 |  |  |  |  | 1.3 | 127 | 1.0 | 1.2 | 
4 | O=C(O)c1cn(C2CC2)c2cc(N3CCNCC3)c(F)cc2c1=O [Ciprofloxacin, ciprofloxacin, reference compound] |  |  |  | 196 | 29.2 | 3.84 |  |  |  |  | 
5 | CCCCCCCCCCCCCCCC[n+]1ccccc1.CCn1cc(C(=O)[O-])c(=O)c2cc(F)c(N3CCNCC3)cc21 [[C16Py][Nor]] | 203 | 87.3 |  |  |  |  | 1.3 | 10.8 | 11.4 | 1.3 | IC50 (3T3 mouse fibroblasts): 5170 nM; IC50 (3T3 mouse fibroblasts; 0.03–10 µM, 24 h): 5160 nM; increase in activity against K. pneumoniae vs norfloxacin [1]: 30%; decrease of CMC in comparison with [C16Py]Cl [4]: 95%; CMC [4]: 0.0539 mmol/L
6 | Cc1n(CCO)cc[n+]1C.O=C([O-])c1cn(C2CC2)c2cc(N3CCNCC3)c(F)cc2c1=O [[C2OHDMIM][Cip]] | 51 | 12.3 | 0.3 |  |  |  |  | 21.2 |  |  | RDIC50 K. pneumoniae [1, 8]: 3.9; RDIC50 S. aureus [3, 8]: 1.4
7 | CCCCCCCCCCCCCCCC[n+]1ccccc1.O=C([O-])c1cn(C2CC2)c2cc(N3CCNCC3)c(F)cc2c1=O [[C16Py][Cip]] | 9.88 | 6.07 | 0.6 |  |  |  |  | 1430 |  |  | IC50 (3T3 mouse fibroblasts): 4720 nM; IC50 (3T3 mouse fibroblasts; 0.03–10 µM, 24 h): 4720 nM; RDIC50 K. pneumoniae [1, 8]: 19.9; activity against S. aureus [3]: almost no activity; RDIC50 S. aureus [3, 8]: 0.0; decrease of activity against B. subtilis in comparison with ciprofloxacin [2]: 40%; CMC [4]: 0.0816 mmol/L
8 | C[N+](C)(C)CCO.[Cl-] [[Ch]Cl, reference compound] |  |  |  |  |  |  |  |  |  |  | IC50 ([1]; Klebsiella pneumoniae, ATCC11296, read-out: IC50 K. pneumoniae, 0.001–10 µM): > 10000 nM; IC50 ([3]; Staphylococcus aureus, ATCC25923, read-out: IC50 S. aureus): > 10000 nM; IC50 ([2]; Bacillus subtilis, ATCC6633, read-out: IC50 B. subtilis): > 10000 nM
9 | CCn1cc(C(=O)[O-])c(=O)c2cc(F)c(N3CCNCC3)cc21.Cc1n(CCO)cc[n+]1C [[C2OHDMIM][Nor]] | 178 | 149 |  |  |  |  | 1.4 | 79.5 | 1.6 | 0.8 | increase in activity against K. pneumoniae vs norfloxacin [1]: 40%; increased activity against S. aureus vs norfloxacin [3]: 60%; lost activity against B. subtilis vs norfloxacin [2]: 20%
10 | CCn1cc[n+](C)c1.O=C([O-])c1cn(C2CC2)c2cc(N3CCNCC3)c(F)cc2c1=O [[EMIM][Cip]] | 64.8 | 16.2 | 0.2 |  |  |  |  | 24.2 |  |  | RDIC50 K. pneumoniae [1, 8]: 3.0; RDIC50 S. aureus [3, 8]: 1.2
11 | CCn1cc(C(=O)O)c(=O)c2cc(F)c(N3CCNCC3)cc21 [Norfloxacin, norfloxacin, reference compound] |  |  |  | 255 | 123 | 97.7 |  |  |  |  | Solubility in water ([5]; 25 °C, neutral form): 370 µg/mL (≈ 1160 µM); Solubility in water ([5]; 25 °C, value outside parentheses): 540 ± 20 µg/mL (≈ 1690 µM); Solubility in water ([5]; 37 °C, value in parentheses): 850 ± 40 µg/mL (≈ 2660 µM); Solubility in water ([5]; 37 °C, value outside parentheses): 840 ± 20 µg/mL (≈ 2630 µM); IC50 ([2]; 0.001–10 µM, listed as Nor, read-out: IC50 B. subtilis): 117 nM
12 | COCCn1cc[n+](C)c1 [[C3Omim]Cl, reference compound] |  |  |  | > 10000 | > 10000 | > 10000 |  |  |  |  | 
13 | CCn1cc(C(=O)[O-])c(=O)c2cc(F)c(N3CCNCC3)cc21.COCC[n+]1ccn(C)c1 [[C3OMIM][Nor]] | 224 | 68.1 |  |  |  |  | 1.1 | 107 | 1.1 | 1.7 | 
14 | Cc1n(CCO)cc[n+]1C [[C2OHDMIM]Cl, reference compound] |  |  |  | > 10000 | > 10000 | > 10000 |  |  |  |  | 
15 | CCn1cc(C(=O)[O-])c(=O)c2cc(F)c(N3CCNCC3)cc21.CCn1cc[n+](C)c1 [[EMIM][Nor]] | 208 | 24.5 |  |  |  |  | 1.2 | 211 | 0.6 | 4.8 | 
16 | COCC[n+]1ccn(C)c1.O=C([O-])c1cn(C2CC2)c2cc(N3CCNCC3)c(F)cc2c1=O [[C3OMIM][Cip]] | 47.6 | 21.7 | 0.2 |  |  |  |  | 82 |  |  | RDIC50 K. pneumoniae [1, 8]: 4.1; RDIC50 S. aureus [3, 8]: 0.4
17 | CCn1cc[n+](C)c1 [[EMIM]Br, reference compound] |  |  |  | > 10000 | > 10000 | > 10000 |  |  |  |  | 
18 | CCn1cc(C(=O)[O-])c(=O)c2cc(F)c(N3CCNCC3)cc21.C[n+]1ccn(CCO)c1 [[C2OHMIM][Nor]] | 201 | 88.6 |  |  |  |  | 1.3 | 91.7 | 1.3 | 1.3 | 
19 | C[N+](C)(C)CCO.O=C([O-])c1cn(C2CC2)c2cc(N3CCNCC3)c(F)cc2c1=O [[Ch][Cip]] | 51.1 | 20.6 | 0.2 |  |  |  |  | 181 |  |  | RDIC50 S. aureus [3, 8]: 0.2
20 | CCCCCCCCCCCCCCCC[n+]1ccccc1.[Cl-] [[C16Py]Cl] |  |  |  |  |  |  |  |  |  |  | CMC ([6]; ref 49): 1.067 mmol/L; CMC ([6]; ref 50): 0.96 mmol/L; CMC [4]: 1.063 mmol/L

Reference: publication PMC7464485, “Antimicrobial Activities of Highly Bioavailable Organic Salts and Ionic Liquids from Fluoroquinolones” (Pharmaceutics, 2020)
